As a reminder, the MIC is the lowest concentration that inhibits growth of the organism. The low end stands for greater potency, the high end for weaker potency. The LD50 is the dose at which mortality reaches 50%. High values mean a less toxic substance, low ones a more toxic substance.

16 compounds from US6071905A, “Biologically active substance on the basis of tetracyclic nitrogen heterocycles of pyrimidine row” (Natural Drug Sciences, LLC, priority 1998, dated 2000) can be followed below.

Converted amounts (≈) assume the structure as drawn.

In data set [1] the test system is herpes virus I of the type (VPG-1/Leningrad/248/88). In words: antiviral action on herpes virus in Vero cells (cytopathogenic action). The data set is classed as cell-based. The conditions noted are these: 36 hours, 38° C. Background: Damage to the host cells serves as the signal in cytopathic effect assays.
Another data set has as its system M. tuberculosis H37Rv. In words: series culture (dilution) method, MIC, M. tuberculosis H37Rv. It counts as cell-based. The settings on record: Mycobacterium tuberculosis, 72 hour cultivation, 37° C., Soton medium with 10% horse serum. As to the method:
In order to determine antimicrobial activity standard strains Mycobacterium smegmatis ATCC607 and Mycobacterium tuberculosis H37RV were used which are sensitive to all antimicrobial compounds.
The evaluation of antimicrobial action was performed with the method of series culture (5). M. smegmatis ATCC607 for seeding was grown on liquid synthetic medium N-1.
The compounds were dissolved in dimethyl sulfoxide (DMSO) and tittered in medium N-1, so that this compound was contained in separate test tubes with the medium in concentration of 200-0.025 mg/l. The concentration of the compound in the medium of neighboring test tubes was differed twice. For the control, DMSO which was tittered the same as the compound, was utilized. Test strain of bacteria was added in the quantity 1-2×10^6 ml. The result was considered after 72 hour cultivation of test tubes at 37° C.
For M tuberculosis H37Rv conditions of experiment were identical, with the exception of the fact that bacteria were grown on the Soton medium which contains 10% horse serum, and density of microbial suspension during seeding was (5.0×10^6) in ml.
As the control, in both cases known tuberculostatic compounds were utilized.

Another data set concerns M. smegmatis ATCC607. In words: series culture (dilution) method, MIC, M. smegmatis ATCC607. The data set is classed as cell-based, Mycobacterium smegmatis. The conditions noted are these: Mycolicibacterium smegmatis, 72 hour cultivation, 37° C., medium N-1.
The next data set has as its system M. avium 84. In words: action on pathogenic mycobacteria from patients, Lowenstein-Jensen medium, M. avium 84. It counts as cell-based, Mycobacterium avium. The settings on record: title: concentration of compound 10.0 g/l; 30 days.
The test system of data set [2] is primary culture of human lymphocytes. In words: interferon-inducing activity in primary culture of human lymphocytes (immuno-ferment assay). The conditions noted are these: 24 hours of incubation. It counts as cell-based.
In another data set the test system is C. trachomatis D323. In words: action on Chlamydia trachomatis in cell culture (McCoy and L929). The data set is classed as cell-based. The conditions noted are these: 48 hours.
The next data set deals with Vero. In words: control of compounds (toxicity) on Vero cell culture. It counts as cell-based.
The test system of another data set is M. bovis bovinus 8. It counts as in vivo, M. bovis bovinus 8; no-breed male mice. The conditions noted are these: for Coefficient of lung mass / Index of damage lungs / Perished animals: 42 day after infection; for Coefficient of lung mass / Index of damage lungs / Seeding M.tub.: dose not given; for Perished animals: tested compounds orally (10, 20 and 30 mg/kg), streptomycin intramuscularly; for Seeding M.tub.: from spleen, CFU per 100 mg.

A further data set can be described thus: in vivo. The conditions noted are these: mouse.

Take `Nc1nc2c(ncn2COCCO)c(=O)[nH]1` [Acyclovir, reference compound]: in [1] (10 mg/l), the “number of unchanged cells in 100 fields” value is 8000.

Consider `CC[C@@H](CO)NCCN[C@@H](CC)CO` [Ethambutol, reference compound], for which the minimum inhibitory concentration (MIC) against M. tuberculosis H37Rv and in the data set with M. smegmatis ATCC607 was 5 µg/mL (≈ 24.5 µM) each time.

For `NNC(=O)c1ccncc1` [Isoniazid, hydrazide of izonicotinic acid, reference compound], the “antimicrobial action, M. avium 84” value in the data set with M. avium 84 is listed as “growth”. Further, the values for the MIC against M. tuberculosis H37Rv and against M. smegmatis ATCC607 were 0.1 µg/mL (≈ 0.729 µM) and 1.5 µg/mL (≈ 10.9 µM), respectively.

Take `CC1COc2c(N3CCN(C)CC3)c(F)cc3c(=O)c(C(=O)O)cn1c23` (centres unmarked) [Ofloxacin, reference compound]: the MIC against M. tuberculosis H37Rv and against M. smegmatis ATCC607 was 0.5 µg/mL (≈ 1.38 µM) in each case.

For the compound `O=c1c2cc([N+](=O)[O-])cc(Br)c2oc2nc3n(c(=O)c12)CCCS3` [R1=Br, R2-NO2, 1-bromo-3-nitro-5-oxo-5H-[1]-benzopyrano-[5,6-b]-4-oxo-4H-[1,2]-pyrimido-1,4,5,6-tetrahydro-1,3-thiazine], the results for the minimal inhibitory concentration (MIC) against M. tuberculosis H37Rv and against M. smegmatis ATCC607 were 25 µg/mL (≈ 60.9 µM) and 100 µg/mL (≈ 244 µM), respectively.

In the case of `O=c1c2cc([N+](=O)[O-])cc(Cl)c2oc2nc3n(c(=O)c12)CCCS3` [R1=Cl, R2=NO2, 1-chloro-3-nitro-5-oxo-5H-[1]-benzopyrano-[5,6-b]-4-oxo-4H-[1,2]-pyrimido-1,4,5,6-tetrahydro-1,3-thiazine], the values for the minimum inhibitory concentration (MIC) with M. tuberculosis H37Rv and against M. smegmatis ATCC607 were 50 µg/mL (≈ 137 µM) and 100 µg/mL (≈ 273 µM), respectively. Besides, the “Content of IFN in induction mixture” value is given as 3.6 ± 0.5 ME/3*10^4 limph./ml in [2] (1 μg/ml) and 18 ± 1.6 ME/3*10^4 limph./ml in [2] (10 μg/ml).

As for `O=c1c2cc(Br)ccc2oc2nc3n(c(=O)c12)CCCS3` [R1=H, R2=Br, 3-bromo-5-oxo-5H-[1]-benzopyrano-[5,6-b]-4-oxo-4H-[1,2]-pyrimido-1,4,5,6-tetrahydro-1,3-thiazine], in the data set with C. trachomatis D323 (100 mg/l), the “Number of unchanged cells” value came to 7.000. For the same compound, the MIC was 25 µg/mL (≈ 68.5 µM) in the data set with M. tuberculosis H37Rv and 50 µg/mL (≈ 137 µM) against M. smegmatis ATCC607. For the same compound, the entries for the “Content of IFN in induction mixture” value in data set [2] (1 μg/ml), in [2] (10 μg/ml) and in [2] (100 μg/ml) were 14 ± 0.5 ME/3*10^4 limph./ml, 84 ± 2.5 ME/3*10^4 limph./ml and 192 ± 1.6 ME/3*10^4 limph./ml, respectively.

For `O=c1c2cc(Cl)ccc2oc2nc3n(c(=O)c12)CCCS3` [R1=H, R2=Cl, 3-chloro-5-oxo-5H-[1]-benzopyrano-[5,6-b]-4-oxo-4H-[1,2]-pyrimido-1,4,5,6-tetrahydro-1,3-thiazine], the minimal inhibitory concentration (MIC) in the data set on M. tuberculosis H37Rv and against M. smegmatis ATCC607 was 10 µg/mL (≈ 31.2 µM) each time.

Regarding `O=c1c2cc([N+](=O)[O-])ccc2oc2nc3n(c(=O)c12)CCCS3` [R1=H, R2=NO2, 3-nitro-5-oxo-5H-[1]-benzopyrano-[5,6-b]-4-oxo-4H-[1,2]-pyrimido-1,4,5,6-tetrahydro-1,3-thiazine], the “toxicity of compounds to cells” value with Vero (50 mg/l) and in the data set on Vero (100 mg/l) was “toxic” each time. In addition, the “number of unchanged cells in 100 fields” value in [1] (10 mg/l) was found to be 6000. The MIC was found to be 50 µg/mL (≈ 151 µM) in the data set on M. tuberculosis H37Rv and 100 µg/mL (≈ 302 µM) in the data set with M. smegmatis ATCC607. Moreover, the “Content of IFN in induction mixture” value came out at 4.2 ± 0.8 ME/3*10^4 limph./ml in data set [2] (1 μg/ml), 20 ± 1.2 ME/3*10^4 limph./ml in data set [2] (10 μg/ml) and 48 ± 1.2 ME/3*10^4 limph./ml in data set [2] (100 μg/ml).

For `COc1ccc2oc3nc4n(c(=O)c3c(=O)c2c1)CCCS4` [R1=H, R2=OCH3, 3-methoxy-5-oxo-5H-[1]-benzopyrano-[5,6-b]-4-oxo-4H-[1, 2]-pyrimido-1,4,5,6-tetrahydro-1,3-thiazine], the values for the MIC in the data set on M. tuberculosis H37Rv and against M. smegmatis ATCC607 were 50 µg/mL (≈ 158 µM) and 100 µg/mL (≈ 316 µM), respectively.

As for `O=c1c2cc(O)ccc2oc2nc3n(c(=O)c12)CCCS3` [R1=H, R2=OH, 3-hydroxy-5-oxo-5H-[1]-benzopyrano-[5,6-b]-4-oxo-4H-[1,2]-pyrimido-1,4,5,6-tetrahydro-1,3-thiazine], the figures for the MIC with M. tuberculosis H37Rv and against M. smegmatis ATCC607 were 50 µg/mL (≈ 165 µM) and 100 µg/mL (≈ 331 µM), respectively.

For `O=c1c2cc(Br)cc(Br)c2oc2nc3n(c(=O)c12)CCCS3` [R1=R2=Br, 1,3-dibromo-5-oxo-5H-[1]-benzopyrano-[5,6-b]-4-oxo-4H-[1,2]-pyrimido-1,4,5,6-tetrahydro-1,3-thiazine], in the data set with M. bovis bovinus 8, the “Coefficient of lung mass” value is 2.30 con. units, the “Index of damage lungs” value came to 2.3 con. unit, the Perished animals was determined as 0% and the “Seeding M.tub.” value worked out at 180 CFU. In the data set on M. tuberculosis H37Rv, this compound showed an MIC of 0.1 µg/mL (≈ 0.225 µM). In “in vivo”, this compound gave a 50% lethal dose (LD50) at 336 h of over 1500 mg/kg. This compound gave a minimum inhibitory concentration (MIC) against M. smegmatis ATCC607 of 0.1 µg/mL (≈ 0.225 µM). The “Content of IFN in induction mixture” value in data set [2] (1 μg/ml) was determined as 4.0 ± 0.5 ME/3*10^4 limph./ml. Further, the “Content of IFN in induction mixture” value in data set [2] (10 μg/ml) was 23 ± 1.0 ME/3*10^4 limph./ml. The “Content of IFN in induction mixture” value in data set [2] (100 μg/ml) turned out to be 47 ± 0.8 ME/3*10^4 limph./ml.

In the case of `O=c1c2cc(Cl)cc(Cl)c2oc2nc3n(c(=O)c12)CCCS3` [R1=R2=Cl, 1,3-dichloro-5-oxo-5H-[1]-benzopyrano-[5,6-b]-4-oxo-4H-[1,2]-pyrimido-1,4,5,6-tetrahydro-1,3-thiazine], in the data set with M. bovis bovinus 8, the “Coefficient of lung mass” value stood at 2.42 con. units, the “Index of damage lungs” value came to 2.5 con. unit, the Perished animals was found to be 0% and the “Seeding M.tub.” value is listed as 195 CFU. Besides, in the data set with M. tuberculosis H37Rv, the MIC was 0.3 µg/mL (≈ 0.845 µM). This compound also returned a median lethal dose (LD50) at 336 h in “in vivo” of over 1500 mg/kg. In the data set with M. smegmatis ATCC607, this compound gave a minimum inhibitory concentration (MIC) of 1 µg/mL (≈ 2.82 µM).

For `O=c1c2ccccc2oc2nc3n(c(=O)c12)CCCS3` [R1=R2=H, 5-oxo-5H-[1]-benzopyrano-[5,6-b]-4-oxo-4H-[1,2]-pyrimido-1,4,5,6-tetrahydro-1,3-thiazine], in the data set on Vero (100 mg/l), the “toxicity of compounds to cells” value is “toxic”. The “number of unchanged cells in 100 fields” value in data set [1] (10 mg/l) is reported as 3000; in [1] (50 mg/l), 6000. The “Number of unchanged cells” value with C. trachomatis D323 (10 mg/l) turned out to be 7.200. For the same compound, the MIC with M. tuberculosis H37Rv was 0.6 µg/mL (≈ 2.1 µM); against M. smegmatis ATCC607, 0.3 µg/mL (≈ 1.05 µM). This compound yielded an LD50 at 336 h in the data set “in vivo” of over 1500 mg/kg.

`CO[C@H]1/C=C/O[C@@]2(C)Oc3c(C)c(O)c4c(O)c(cc(O)c4c3C2=O)NC(=O)/C(C)=C\C=C\[C@H](C)[C@H](O)[C@@H](C)[C@@H](O)[C@@H](C)[C@H](OC(C)=O)[C@@H]1C` [Rifamycin, reference compound]: the “antimicrobial action, M. avium 84” value with M. avium 84 was “growth”. The values for the MIC against M. tuberculosis H37Rv and in the data set on M. smegmatis ATCC607 were 0.05 µg/mL (≈ 0.0717 µM) and 0.25 µg/mL (≈ 0.358 µM), respectively.

As to `[H]/N=C(/N)N[C@H]1[C@H](O)[C@@H](O)[C@H](O[C@@H]2O[C@@H](C)[C@](O)(C=O)[C@H]2O[C@@H]2O[C@@H](CO)[C@H](O)[C@@H](O)[C@@H]2NC)[C@@H](N/C(N)=N\[H])[C@@H]1O` [Streptomycin, reference compound], in the data set on M. bovis bovinus 8, the “Coefficient of lung mass” value came out at 2.47 con. units, the “Index of damage lungs” value amounted to 2.45 con. unit, the Perished animals was found to be 0% and the “Seeding M.tub.” value is 200 CFU. The “antimicrobial action, M. avium 84” value with M. avium 84 is recorded as “growth”. This compound also showed an MIC with M. tuberculosis H37Rv of 0.2 µg/mL (≈ 0.344 µM). The compound also registered an MIC with M. smegmatis ATCC607 of 0.15 µg/mL (≈ 0.258 µM).
